Target: PBPA (penicillin-binding protein A) (Mycobacterium tuberculosis, UniProt P9WKD1)
Sequence (P9WKD1 34-491): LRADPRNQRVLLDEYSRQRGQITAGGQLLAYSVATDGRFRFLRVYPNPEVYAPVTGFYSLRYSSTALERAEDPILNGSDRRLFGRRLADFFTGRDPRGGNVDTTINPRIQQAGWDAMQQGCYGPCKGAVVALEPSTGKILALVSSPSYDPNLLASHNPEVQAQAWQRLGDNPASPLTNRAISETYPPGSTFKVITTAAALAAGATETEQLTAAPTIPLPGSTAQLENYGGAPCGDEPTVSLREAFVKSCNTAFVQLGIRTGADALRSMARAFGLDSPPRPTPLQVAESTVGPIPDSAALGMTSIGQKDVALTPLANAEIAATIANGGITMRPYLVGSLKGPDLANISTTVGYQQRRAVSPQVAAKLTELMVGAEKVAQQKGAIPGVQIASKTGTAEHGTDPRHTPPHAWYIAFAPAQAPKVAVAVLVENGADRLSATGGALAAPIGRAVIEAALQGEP

C[C@@H](O)[C@H]1C(=O)N2C(C(=O)O)=C(SCCN=CN)C[C@H]12 [Imipenem]
Method / Intrinsic fluorescence: 3,980 ± 180 M^-1 sec^-1
